Active and inactive are the calls of the source. No cut-off for these calls is given here.

Data set [1] can be described thus: Antioxidant activity assessed as DPPH radical scavenging activity incubated for 30 mins. The data set is classed as functional.
The target of data set [2] is T1, Acetylcholinesterase (Homo sapiens, UniProt P22303). In words: Inhibition of human recombinant AChE expressed in HEK293 cells using acetylthiocholine iodide as substrate preincubated with compound for 30 mins followed by substrate addition and measured after 30 mins by DTNB reagent based Ellman's method.
T1 sequence (P22303 whole entry): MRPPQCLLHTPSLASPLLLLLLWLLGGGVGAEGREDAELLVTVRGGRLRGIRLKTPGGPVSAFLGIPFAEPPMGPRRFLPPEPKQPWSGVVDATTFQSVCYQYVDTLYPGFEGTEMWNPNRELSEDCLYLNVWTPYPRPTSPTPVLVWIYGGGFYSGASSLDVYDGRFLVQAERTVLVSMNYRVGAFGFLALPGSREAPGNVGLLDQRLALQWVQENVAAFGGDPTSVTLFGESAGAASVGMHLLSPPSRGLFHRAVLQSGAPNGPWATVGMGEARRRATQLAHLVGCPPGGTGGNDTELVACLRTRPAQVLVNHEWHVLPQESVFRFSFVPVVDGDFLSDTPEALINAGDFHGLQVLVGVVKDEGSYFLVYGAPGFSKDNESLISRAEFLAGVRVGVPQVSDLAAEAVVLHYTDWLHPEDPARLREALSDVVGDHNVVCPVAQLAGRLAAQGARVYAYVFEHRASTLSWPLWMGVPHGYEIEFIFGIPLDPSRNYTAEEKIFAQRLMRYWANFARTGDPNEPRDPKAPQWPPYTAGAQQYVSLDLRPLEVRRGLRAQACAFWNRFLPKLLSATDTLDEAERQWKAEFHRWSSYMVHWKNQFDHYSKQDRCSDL
In another data set the target is Cholinesterase (Equus caballus, UniProt P81908). Kind of data set: Inhibition of equine serum BChE using acetylthiocholine iodide as substrate preincubated with compound for 30 mins followed by substrate addition and measured after 30 mins by DTNB reagent based Ellman's method.
Cholinesterase, sequence (P81908 whole entry): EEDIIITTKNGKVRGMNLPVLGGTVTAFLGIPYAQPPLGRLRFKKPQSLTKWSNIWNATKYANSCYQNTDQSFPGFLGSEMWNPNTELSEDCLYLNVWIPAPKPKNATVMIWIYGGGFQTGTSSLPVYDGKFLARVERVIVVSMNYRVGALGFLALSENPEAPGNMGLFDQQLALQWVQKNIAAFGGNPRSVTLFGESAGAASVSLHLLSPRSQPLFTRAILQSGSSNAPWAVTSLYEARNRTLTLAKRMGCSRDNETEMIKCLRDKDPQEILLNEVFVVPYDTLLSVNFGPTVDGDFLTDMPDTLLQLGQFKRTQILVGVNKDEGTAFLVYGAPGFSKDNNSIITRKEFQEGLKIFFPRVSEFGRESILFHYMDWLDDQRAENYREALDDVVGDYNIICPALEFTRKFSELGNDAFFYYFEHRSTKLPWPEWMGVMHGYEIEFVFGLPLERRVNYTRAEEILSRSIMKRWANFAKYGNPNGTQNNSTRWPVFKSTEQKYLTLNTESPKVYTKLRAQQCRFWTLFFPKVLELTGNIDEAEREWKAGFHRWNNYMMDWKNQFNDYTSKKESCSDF
The target of data set [3] is T1, Acetylcholinesterase. Kind of data set: Displacement of propidium iodide from human AChE PAS assessed as reduction in fluorescence intensity at 1 uM incubated for 6 hrs by fluorescence based analysis relative to control. Also noted: scale not given: the % may be the effect or the level left.
Data set [4] relates to Drosophila melanogaster. In words: Anti-alzheimer activity in ey-GAL4 driven UAS-amyloid beta (1 to 42) induced Drosophila melanogaster Oregon R-positive assessed as mild eye phenotype at 100 uM by Stereo zoom microscopic imaging analysis relative to control. The data set is classed as functional.
In data set [5] the target is T1, Acetylcholinesterase. Kind of data set: Displacement of propidium iodide from human AChE PAS assessed as reduction in fluorescence intensity at 5 uM incubated for 6 hrs by fluorescence based analysis relative to control. Also noted: scale not given: the % may be the effect or the level left.
For data set [6], the system named is Mus musculus. Kind of data set: Antioxidant activity against scopolamine-induced Swiss albino mouse model assessed as increase in SOD level at 3 mg/kg, po by absorbance based analysis. The data set is classed as functional, organism-based.
Data set [7] in a line: Toxicity in Drosophila melanogaster Oregon R-positive assessed as reduction in eclosed flies at 400 uM measured for 15 days relative to control. The following applies: 360 h, time 15 day. The arrangement: scale not given: the % may be the effect or the level left.
The target of data set [8] is T1, Acetylcholinesterase. In words: Displacement of propidium iodide from human AChE PAS assessed as reduction in fluorescence intensity at 0.01 uM incubated for 6 hrs by fluorescence based analysis relative to control. The arrangement: scale not given: the % may be the effect or the level left.
A short description of data set [9]: Toxicity in Drosophila melanogaster Oregon R-positive assessed as reduction in eclosed flies at 50 uM measured for 15 days relative to control. Also noted: scale not given: the % may be the effect or the level left. The note with it: 360 h, time 15 day.
Data set [10] relates to Drosophila melanogaster. In words: Anti-alzheimer activity in ey-GAL4 driven UAS-amyloid beta (1 to 42) induced Drosophila melanogaster Oregon R-positive assessed as severe eye phenotype at 50 uM by Stereo zoom microscopic imaging analysis relative to control. Format: functional.
A short description of data set [11]: Antioxidant activity assessed as DPPH radical scavenging activity at 200 uM incubated for 30 mins relative to control. The data set is classed as functional.
In data set [12] the test system is Drosophila melanogaster. In words: Anti-alzheimer activity in ey-GAL4 driven UAS-amyloid beta (1 to 42) induced Drosophila melanogaster Oregon R-positive assessed as rescued eye phenotype at 100 uM by Stereo zoom microscopic imaging analysis relative to control. The data set is classed as functional.
A short description of data set [13]: Toxicity in Drosophila melanogaster Oregon R-positive assessed as reduction in eclosed flies at 100 uM measured for 15 days relative to control. The arrangement: scale not given: the % may be the effect or the level left. The following applies: 360 h, time 15 day.
Data set [14] concerns the target T1, Acetylcholinesterase. In words: Displacement of propidium iodide from human AChE PAS assessed as reduction in fluorescence intensity at 0.1 uM incubated for 6 hrs by fluorescence based analysis relative to control. Also noted: scale not given: the % may be the effect or the level left.
The test system of data set [15] is Drosophila melanogaster. In words: Anti-alzheimer activity in ey-GAL4 driven UAS-amyloid beta (1 to 42) induced Drosophila melanogaster Oregon R-positive assessed as reduction in superoxide level at 100 uM by fluorescence based analysis. Format: functional, organism-based.
The test system of data set [16] is Drosophila melanogaster. In words: Inhibition of oxidative stress in y-GAL4 driven UAS-amyloid beta (1 to 42) induced Drosophila melanogaster Oregon R-positive assessed as reduction in ROS level at 50 uM incubated for 30 mins by H2DCFDA staining based analysis. The data set is classed as functional, organism-based.
Data set [17] relates to Mus musculus. Kind of data set: Antialzheimer activity in scopolamine-induced Swiss albino mouse model assessed as reduction in BChE level at 3 mg/kg, po preincubated with compound for 30 mins followed by scopolamine induction and measured after 30 mins. Format: functional, organism-based. The following applies: time 1.0 hrs.
Data set [18] relates to Drosophila melanogaster. In words: Anti-alzheimer activity in ey-GAL4 driven UAS-amyloid beta (1 to 42) induced Drosophila melanogaster Oregon R-positive assessed as mild eye phenotype at 50 uM by Stereo zoom microscopic imaging analysis relative to control. The data set is classed as functional.
In data set [19] the test system is Mus musculus. Kind of data set: Antialzheimer activity in scopolamine-induced Swiss albino mouse model assessed as improvement in memory retention by measuring time spent in platform quadrant at 3 mg/kg, po preincubated with compound for 30 mins followed by scopolamine induction and measured after 5 days by Morris water maze test. The following applies: time 7230.0 min. The data set is classed as functional, organism-based.

Data set [20] is described as follows: Toxicity in Drosophila melanogaster Oregon R-positive assessed as reduction in eclosed flies at 200 uM measured for 15 days relative to control. The arrangement: scale not given: the % may be the effect or the level left. The note with it: 360 h, time 15 day.

For `O=C1O[C@H]([C@@H](O)CO)C(O)=C1O` [ASCORBIC ACID], the IC50 in [1] was found to be 3510 nM.

As for `CC(c1cccc(OC(=O)NCCc2c[nH]c3ccc(O)cc23)c1)N(C)C` (centres undefined), the IC50 at Acetylcholinesterase [2] stood at 2.31 nM; on Cholinesterase, 55.8 nM.

Consider `CCN(C)C(=O)Oc1cccc([C@H](C)N(C)C)c1` [RIVASTIGMINE], for which the Activity at Acetylcholinesterase [3] was 6.3%; in the data set on Drosophila melanogaster [4] it was 40%; on Acetylcholinesterase [5] it was 8.74%; in [7] it was 29%; on Acetylcholinesterase [8] it was 1.61%; in [9] it was 108%. For the same molecule, the Activity with Drosophila melanogaster [10] came to 23%; in [11] it was 3.71%; in the data set on Drosophila melanogaster [12] it was 33%; in [13], 95%; on Acetylcholinesterase [14], 2.96%; in the data set with Drosophila melanogaster [18], 43%. For the same molecule, the Activity in [20] is on record as 73%. Further, the result in the data set with Mus musculus [6], in the data set on Drosophila melanogaster [15], in the data set with Drosophila melanogaster [16], in the data set on Mus musculus [17] and in the data set on Mus musculus [19] was Active.

On to `Cc1ccc2[nH]cc(CCNC(=O)Oc3cccc(C(C)N(C)C)c3)c2c1` (centres undefined), for which the figures for the IC50 on Acetylcholinesterase [2] and at Cholinesterase were 73.3 nM and 38.7 nM, respectively.

As for `Cc1ccc2[nH]cc(CCNC(=O)Oc3cccc([C@H](C)N(C)C)c3)c2c1`, the IC50 came out at 54.7 nM on Acetylcholinesterase [2] and 26.5 nM at Cholinesterase.

As to `COc1ccc2[nH]cc(CCNC(=O)Oc3cccc(C(C)N(C)C)c3)c2c1` (centres undefined), the values for the IC50 at Acetylcholinesterase [2] and at Cholinesterase were 48.3 nM and 13.6 nM, respectively.

Regarding `CC(c1cccc(OC(=O)NCCc2c[nH]c3ccc(Cl)cc23)c1)N(C)C` (centres undefined), the Activity in data set [11] amounted to 33.3%. Further, the results for the IC50 on Acetylcholinesterase [2] and at Cholinesterase were 13.8 nM and 2.14 nM, respectively.

As for `C[C@H](c1cccc(OC(=O)NCCc2c[nH]c3ccc(Cl)cc23)c1)N(C)C`, the IC50 at Acetylcholinesterase [2] worked out at 8.38 nM; on Cholinesterase, 7.66 nM.

Turning to `COc1ccc2[nH]cc(CCNC(=O)Oc3cccc([C@H](C)N(C)C)c3)c2c1`, the Activity in data set [11] is 19.8%. Moreover, the figures for the IC50 on Acetylcholinesterase [2] and on Cholinesterase were 21.4 nM and 3.15 nM, respectively.

Take `CC(c1cccc(OC(=O)NCCc2c[nH]c3ccccc23)c1)N(C)C` (centres undefined): the IC50 at Acetylcholinesterase [2] was 24.5 nM; on Cholinesterase, 14.8 nM.

`C[C@@H](c1cccc(OC(=O)NCCc2c[nH]c3ccccc23)c1)N(C)C`: the values for the IC50 at Acetylcholinesterase [2] and at Cholinesterase were 22.2 nM and 11.1 nM, respectively.

Source of the values: ChEMBL document CHEMBL6074689 (Eur J Med Chem, 2025).
